Assay results as given in patent US9737610B2 (priority 2010, dated 2017).
Entries after “also recorded” stand apart in the source; their conditions may differ.

Columns and labels:
[1] = Physical stability assessment in 0.1N HCl at 37° C. (PLM); assay type: physicochemical
Description: For the assessment of physical stability for samples in a 0.1N HCl solution maintained at 37° C., observations were made and microscopy images were acquired using polarized light at different time points including 0, 6 and 24 hrs, as summarized in Table 6. Based on the absence of birefringent particles when samples were observed by PLM, dispersions prepared with HPMC-AS HG and HPMC-AS MG display the highest physical stability under this particular stress condition.

[2] = Physical stability assessment at 40° C./75% RH for 7 d (PLM, mDSC); assay type: physicochemical; conditions: after 40° C./75% RH for 7 d
Description: Each of the samples remained as irregular aggregates without birefringence/extinctions after stressed at 40° C./75% RH condition for 7 days. […] All of samples display a single apparent Tg at approximately 148° C.

[3] = Physical stability assessment at 60° C./dry for 7 d (PLM); assay type: physicochemical; conditions: after 60° C./dry for 7 d
Text: Each of the samples remained as irregular aggregates without birefringence/extinctions after stressed at this condition for 7 days.

[4] = Dog pharmacokinetics of API, amorphous and solid dispersion capsules, cross-over; design: species or system male beagle dogs; conditions: male, beagle, in vivo, po, 2200 mg
Description: Presented herein are dog pharmacokinetics (PK) studies comparing various forms of rifaximin. […] In the SD dosage form, the polymer used was HPMC-AS at a drug to polymer ratio of 50:50. The formulation also comprised pluronic F127 and crosscarmellose sodium (see Example 4). […] Blood was collected at timed intervals for 24 h after dosage administration, and plasma was harvested for LC-MS/MS analysis.

in vivo = conditions: dog, po, 2200 mg

Row | SMILES | PLM results ([1]; 6 hrs) | PLM results ([1]; 24 hrs) | time at which crystallization (birefringence/extinctions) was observed ([1]; PLM) [h] | PLM results ([1]; time 0) | PLM results [2] | PLM results [3] | AUCINF_obs, mean [4] [ng·h/mL] | AUC_0-24, mean [4] [ng·h/mL] | AUClast, mean [4] [ng·h/mL] | Cmax, mean [4] [ng/mL] | half-life ([4]; Half-life, geometric mean) [min] | Tmax ([4]; Tmax, median) [h] | Half-life, geometric mean [4] [h] | Tmax [4] [h] | mean exposure (AUCinf) as compared with API [4] [fold] | AUC (in vivo) [ng·h/mL] | AUC(0-inf) (in vivo) [ng·h/mL] | Cmax (in vivo) [ng/mL] | Tmax (in vivo) [h]
1 | CO[C@H]1/C=C/O[C@@]2(C)Oc3c(C)c(O)c4c(O)c(c5c(nc6cc(C)ccn65)c4c3C2=O)NC(=O)/C(C)=C\C=C\[C@H](C)[C@H](O)[C@@H](C)[C@@H](O)[C@@H](C)[C@H](OC(C)=O)[C@@H]1C [(100:0) Rifaximin-only, Rifaximin] | clear view of B/E particles; also recorded: agg., no B/E + a few B/E particles | agg., no B/E + a few B/E particles | 6 | agg., irr., no B/E | agg., irr., no B/E | agg., irr., no B/E |  |  |  |  |  |  |  |  |  |  |  |  | 
2 | CO[C@H]1/C=C/O[C@@]2(C)Oc3c(C)c(O)c4c(O)c(c5c(nc6cc(C)ccn65)c4c3C2=O)NC(=O)/C(C)=C\C=C\[C@H](C)[C@H](O)[C@@H](C)[C@@H](O)[C@@H](C)[C@H](OC(C)=O)[C@@H]1C [API, Rifaximin] |  |  |  |  |  |  | 104 | 82 | 81 | 44.93 | 419 | 1 |  |  |  |  |  |  | 
3 | CO[C@H]1/C=C/O[C@@]2(C)Oc3c(C)c(O)c4c(O)c(c5c(nc6cc(C)ccn65)c4c3C2=O)NC(=O)/C(C)=C\C=C\[C@H](C)[C@H](O)[C@@H](C)[C@@H](O)[C@@H](C)[C@H](OC(C)=O)[C@@H]1C [amorph, Rifaximin] |  |  |  |  |  |  | 4027 | 3908 | 3908 |  |  |  | 5.88 | 1 | ~40 | 3910 | 4030 | 1390 | 2
